Assay results taken from patent US10774064B2 (Cadent Therapeutics, Inc., priority 2016, dated 2020).

Biological target: T1, small-conductance Ca2+-activated K+ channels (SK channels, subtype 2) (Homo sapiens, UniProt Q9H2S1)
T1 construct: expressed in transfected cells; host or cells: HEK293
Assay: whole-cell patch-clamp of ionic current through SK2 channels in HEK293 cells (SC100)
Assay type: cell-based
Conditions: concentration that increases the basal current by 100%; HEK293 cells expressing SK2 channels
Method in brief: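 Whole-cell patch-clamp recording of current in HEK293 cells expressing SK2 channels. SC100 is the compound concentration that increases basal current by 100%.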

SC100 | Structure (SMILES)
+ (+ means >1 uM) | Cc1ccn(-c2nc(NC3CCC(F)(F)CC3)cc(C3COCCC3(F)F)n2)n1 (stereo not shown) [Compound 242, N-(4,4-difluorocyclohexyl)-6-(4,4-difluorotetrahydro-2H-pyran-3-yl)-2-(3-methyl-1H-pyrazol-1-yl)pyrimidin-4-amine]
+ (+ means >1 uM) | Cc1cc(C)n(-c2cc(C(C)(C)O)cc(NC3CCC(F)(F)CC3)n2)n1 [Compound 206, 2-(2-((4,4-difluorocyclohexyl)amino)-6-(3,5-dimethyl-1H-pyrazol-1-yl)pyridin-4-yl)propan-2-ol]
++ (++ means 200 nM-1000 nM) | Cc1ccn(-c2nc(NC3CCC(F)(F)CC3)cc(NC3COC3)n2)n1 [Compound 141, N4-(4,4-difluorocyclohexyl)-2-(3-methyl-1H-pyrazol-1-yl)-N6-(oxetan-3-yl)pyrimidine-4,6-diamine]
+ (+ means >1 uM) | Cc1cc(C)n(-c2nc(NC3CCC(F)(F)CC3)cc(NC3CCN(C)C3=O)n2)n1 (stereo not shown) [Compound 125, 3-((6-((4,4-difluorocyclohexyl)amino)-2-(3,5-dimethyl-1H-pyrazol-1-yl)pyrimidin-4-yl)amino)-1-methylpyrrolidin-2-one]
++ (++ means 200 nM-1000 nM) | Cc1cc(NC2CCC(F)(F)CC2)nc(-c2nc(C(C)C)cs2)n1 [Compound 278, N-(4,4-difluorocyclohexyl)-2-(4-isopropylthiazol-2-yl)-6-methylpyrimidin-4-amine]
++ (++ means 200 nM-1000 nM) | Cc1cc(NC2CCC(F)(F)CC2)nc(-n2ccc(C(C)C)n2)n1 [Compound 218, N-(4,4-difluorocyclohexyl)-2-(3-isopropyl-1H-pyrazol-1-yl)-6-methylpyrimidin-4-amine]
+ (+ means >1 uM) | Cc1cc(NC2CCC(F)(F)CC2)nc(-n2cc(F)cn2)n1 [Compound 196, N-(4,4-difluorocyclohexyl)-2-(4-fluoro-1H-pyrazol-1-yl)-6-methylpyrimidin-4-amine]
++ (++ means 200 nM-1000 nM) | Cc1cc(C)n(-c2cc(NCc3cnnn3C)cc(NC3CCC(F)(F)CC3)n2)n1 [Compound 250, N2-(4,4-difluorocyclohexyl)-6-(3,5-dimethyl-1H-pyrazol-1-yl)-N4-((1-methyl-1H-1,2,3-triazol-5-yl)methyl)pyridine-2,4-diamine]
+++ (+++ means <200 nM) | Cc1ccn(-c2nc(NC3CCC(F)(F)CC3)cc(OC3CN(C(=O)C(C)(C)C)C3)n2)n1 [Compound 211, 1-(3-((6-((4,4-difluorocyclohexyl)amino)-2-(3-methyl-1H-pyrazol-1-yl)pyrimidin-4-yl)oxy)azetidin-1-yl)-2,2-dimethylpropan-1-one]
++ (++ means 200 nM-1000 nM) | Cc1cc(C)n(-c2cc(C3CC3)nc(NC3CCC(F)(F)CC3)n2)n1 [Compound 226, 4-cyclopropyl-N-(4,4-difluorocyclohexyl)-6-(3,5-dimethyl-1H-pyrazol-1-yl)pyrimidin-2-amine]
++ (++ means 200 nM-1000 nM) | Cc1cc(NC2CCC(F)(F)CC2)nc(-n2ccc(C)n2)n1 [Compound 148, N-(4,4-difluorocyclohexyl)-6-methyl-2-(3-methyl-1H-pyrazol-1-yl)pyrimidin-4-amine]
+ (+ means >1 uM) | COC(=O)N1CCC1COc1cc(NC2CCC(F)(F)CC2)nc(-n2ccc(C(F)F)n2)n1 (stereo not shown) [Compound 314, methyl 2-(((6-((4,4-difluorocyclohexyl)amino)-2-(3-(difluoromethyl)-1H-pyrazol-1-yl)pyrimidin-4-yl)oxy)methyl)azetidine-1-carboxylate]
++ (++ means 200 nM-1000 nM) | CCC(=O)N1CC(Oc2cc(NC3CCC(F)(F)CC3)nc(-c3nc(CF)cs3)n2)C1 [Compound 341, 1-(3-((6-((4,4-difluorocyclohexyl)amino)-2-(4-(fluoromethyl)thiazol-2-yl)pyrimidin-4-yl)oxy)azetidin-1-yl)propan-1-one]

Same assay, conditions: whole-cell patch-clamp, HEK293 cells expressing SK2 channels; concentration that increases the basal current by 100%

SC100 (μM) | Structure (SMILES)
++ (++ means 200 nM-1000 nM) | Cc1ccn(-c2cc(N3CC4(COC4)C3)nc(NC3CCC(F)(F)CC3)n2)n1 [NSSy6522]
+ (+ means >1 uM) | Cc1cc(C)n(-c2cc(N3CC4CCC(C3)O4)nc(NC3CCC(F)(F)CC3)n2)n1 [NSSy6644]
++ (++ means 200 nM-1000 nM) | Cc1ccn(-c2cc(COc3ncc(F)cn3)cc(NC3CCC(F)(F)CC3)n2)n1 [NSSy5861]
++ (++ means 200 nM-1000 nM) | Cc1ccn(-c2cc(COc3ccc(F)cn3)cc(NC3CCC(F)(F)CC3)n2)n1 [NSSy5996]
+++ (+++ means <200 nM) | Cc1csc(-c2cc(CNC=O)cc(NC3CCC(F)(F)CC3)n2)n1 [IN11133-037-P1]
+ (+ means >1 uM) | Fc1ccn(-c2nc(NC3CCC(F)(F)CC3)cc(N3CCOCC3)n2)n1 [NSSy6343]
++ (++ means 200 nM-1000 nM) | Cc1cc(NC2CCC(F)(F)CC2)nc(-n2ccc(C(C)(C)C)n2)n1 [IN11177-029-P1]
++ (++ means 200 nM-1000 nM) | Cc1ccn(-c2cc(CNC(=O)C(C)C)cc(NC3CCC(F)(F)CC3)n2)n1 [NSSy5637]
+ (+ means >1 uM) | COc1cc(-n2ccc(C)n2)nc(NC2CCC(F)(F)CC2)n1 [NSSy6574]
++ (++ means 200 nM-1000 nM) | Cc1ccn(-c2cc(N3CCNCC3)nc(NC3CCC(F)(F)CC3)n2)n1 [NSSy6679]
+++ (+++ means <200 nM) | COc1cnc(-c2nc(C3CC3)cs2)nc1NC1CCC(F)(F)CC1 [IN11147-096-P1, 2-(4-cyclopropylthiazol-2-yl)-N-(4,4-difluorocyclohexyl)-5-methoxypyrimidin-4-amine]
+ (+ means >1 uM) | Cc1ccn(-c2nc(N[C@@H]3C[C@H]4CC[C@@H]3O4)cc(N3CCOCC3)n2)n1 [NSSy6445]
++ (++ means 200 nM-1000 nM) | COc1ccn(-c2nc(C)cc(NC3CCC(F)(F)CC3)n2)n1 [NSSy6994, N-(4,4-difluorocyclohexyl)-2-(3-methoxy-1H-pyrazol-1-yl)-6-methylpyrimidin-4-amine]
+++ (+++ means <200 nM) | CC(=O)c1cc(NC2CCC(F)(F)CC2)nc(-c2nc(C)cs2)c1 [IN11130-053-P1, 1-(2-((4,4-difluorocyclohexyl)amino)-6-(4-methylthiazol-2-yl)pyridin-4-yl) ethan-1-one]
++ (++ means 200 nM-1000 nM) | Cc1ccn(-c2nc(NC3CCC(F)(F)CC3)cc(N3CC4(COC4)C3)n2)n1 [NSSy5631]
++ (++ means 200 nM-1000 nM) | Cc1csc(-c2nc(NC3CCC(F)(F)CC3)cc(N3CCC(C4COC4)CC3)n2)n1 [NSSy5787]
+ (+ means >1 uM) | Cc1ccn(-c2nc(NC3CC4CCC3O4)cc(N3CCOCC3)n2)n1 (stereo not shown) [NSSy6420]
++ (++ means 200 nM-1000 nM) | Cc1cc(NC2CCC(F)(F)CC2)nc(-n2ccc(C3CC3)n2)n1 [NSSy6935]
+ (+ means >1 uM) | COC(=O)N1CC(Oc2cc(NC3C4CC3C4)nc(-n3ccc(C)n3)n2)C1 (stereo not shown) [NSSy6127]

The next lines start with the compound.

Structure (SMILES) | SC100 (μM)
COc1cc(NCCC(C)(F)F)nc(-c2nc(C)cs2)n1 [IN11107-021-P1] | + (+ means >1 uM)
Cc1ccc(-c2nc(NC3CCC(F)(F)CC3)cc(N3CCOCC3)n2)o1 [IN10971-077-P1, N-(4,4-difluorocyclohexyl)-2-(5-methylfuran-2-yl)-6-morpholinopyrimidin-4-amine] | + (+ means >1 uM)
Cc1csc(-c2nc(NC3CCC(F)(F)CC3)cc(OCc3ncnn3C)n2)n1 [NSSy5689] | + (+ means >1 uM)
CCOc1cc(NC2CCC(F)(F)CC2)nc(-n2nc(C)cc2C)n1 [IN11121-042-P1, N-(4,4-difluorocyclohexyl)-2-(3,5-dimethyl-1H-pyrazol-1-yl)-6-ethoxypyrimidin-4-amine] | + (+ means >1 uM)
CC(=O)c1cc(NC2CCC(F)(F)CC2)nc(-c2nc(C)cs2)n1 [IN11030-054-P1, 1-(6-((4,4-difluorocyclohexyl)amino)-2-(4-methylthiazol-2-yl)pyrimidin-4-yl) ethan-1-one] | + (+ means >1 uM)
Cc1cc(C)n(-c2nc(NC3CC(F)(F)C3)cc(N3CCOCC3)n2)n1 [IN11108-019-P1] | + (+ means >1 uM)
Cc1ccn(-c2nc(NC3CCC(F)(F)CC3)cc(C(C)F)n2)n1 (stereo not shown) [IN10876-080-P1, N-(4,4-difluorocyclohexyl)-6-(1-fluoroethyl)-2-(3-methyl-1H-pyrazol-1-yl)pyrimidin-4-amine] | + (+ means >1 uM)
COc1cnc(-c2nc(C)cs2)nc1NC1CCC(F)(F)CC1 [IN11125-014-P1, N-(4,4-difluorocyclohexyl)-5-methoxy-2-(4-methylthiazol-2-yl)pyrimidin-4-amine] | ++ (++ means 200 nM-1000 nM)
Cc1ccn(-c2nc(C(C)O)cc(N(C)C3CCCCC3)n2)n1 (stereo not shown) [IN10880-064-P1] | + (+ means >1 uM)
FCc1ccn(-c2nc(NC3CCC(F)(F)CC3)cc(OC3CC(F)(F)C3)n2)n1 [NSSy5619, 6-(3,3-difluorocyclobutoxy)-N-(4,4-difluorocyclohexyl)-2-(3-(fluoromethyl)-1H-pyrazol-1-yl)pyrimidin-4-amine] | + (+ means >1 uM)
Cc1csc(-c2cc(N(C)C)cc(NC3CCC(F)(F)CC3)n2)n1 | ++ (++ means 200 nM-1000 nM)
Cc1ccn(-c2nc(NC(C)C)cc(C(C)O)n2)n1 (stereo not shown) [IN10880-056-P1] | + (+ means >1 uM)
Cc1ccn(-c2cc(CN)cc(NC3CCC(F)(F)CC3)n2)n1 [IN10967-063-P1, 4-(aminomethyl)-N-(4,4-difluorocyclohexyl)-6-(3-methyl-1H-pyrazol-1-yl)pyridin-2-amine] | ++ (++ means 200 nM-1000 nM)
CNc1cc(NC2CCC(F)(F)CC2)nc(-c2nc(C)cs2)n1 [IN11055-049-P1] | ++ (++ means 200 nM-1000 nM)
Cc1cc(C)n(-c2nc(C(C)O)cc(N(C)C3CCCCC3)n2)n1 (stereo not shown) [IN10973-004-P1] | + (+ means >1 uM)
Cc1csc(-c2nc(NC3CCC(F)(F)CC3)cc(N(C)C)n2)n1 [IN11055-046-P1] | ++ (++ means 200 nM-1000 nM)
COc1cc(NC2CCC3(CC2)CC3)nc(-c2nc(C)cs2)n1 [IN11106-033-P1] | + (+ means >1 uM)
